According to PMC4695185, “Semi-synthetic ocotillol analogues as selective ABCB1-mediated drug resistance reversal agents” (Oncotarget, 2015):
Read-outs that look alike come from different tables or passages of the source.

Tests used:
[1] = tested on: HEK293; experiment: cells; design: species or system HEK293 and transfected HEK293; MTT cytotoxicity, absorbance 570 nm, 72 h; conditions: Homo sapiens, HEK293, 72 h, drug alone
Description: (§1) The MTT colorimetric assay was used to detect the sensitivity of the cells against anticancer drugs. Cells (5 × 10^3/well) were seeded evenly into (160 μl/well) 96-well plates and cultured overnight. For the reversal experiments, ORA, OSA, and parallel control modulators (20 μl/well) were added 1 h prior. Different concentrations of the chemotherapeutic drugs (20 μl/well) were then added into the designated wells. After 72 h of incubation, 20 μl of MTT solution (4 mg/ml) was added to each well, and the plate was further incubated for 4 h. Subsequently, the medium was discarded, and 100 μl of dimethylsulfoxide (DMSO) was added into each well to dissolve the formazan crystals. The absorbance was determined at 570 nm by the OPSYS microplate reader (DYNEX Technology, Inc., Chantilly, VA). The IC50 value was calculated from the survival curves using the modified Bliss method. Verapamil was used at a nontoxic concentration of 3 μM as a positive control for ABCB1 overexpressing cell lines. FTC at 3 μM and PAK-104P at 10 μM were used as positive control for ABCG2 and ABCC1 overexpressing cell lines, respectively.

[2] = tested on: T1, HEK/ABCG2; experiment: cells; design: species or system HEK293 and transfected HEK293; MTT cytotoxicity, absorbance 570 nm, 72 h; conditions: Homo sapiens, HEK293, 72 h; drug alone; read-out: IC50 HEK/ABCG2 (mitoxantrone)
T1 construct: HEK293 transfected with ABCG2 (wild type)
Description: as §1

[3] = target: T2, ABCB1 (Homo sapiens, UniProt P08183); experiment: biochemical; design: full length ABCB1 (HEK/ABCB1); crude membranes of High-five cells expressing ABCB1
T2 sequence (P08183 whole entry): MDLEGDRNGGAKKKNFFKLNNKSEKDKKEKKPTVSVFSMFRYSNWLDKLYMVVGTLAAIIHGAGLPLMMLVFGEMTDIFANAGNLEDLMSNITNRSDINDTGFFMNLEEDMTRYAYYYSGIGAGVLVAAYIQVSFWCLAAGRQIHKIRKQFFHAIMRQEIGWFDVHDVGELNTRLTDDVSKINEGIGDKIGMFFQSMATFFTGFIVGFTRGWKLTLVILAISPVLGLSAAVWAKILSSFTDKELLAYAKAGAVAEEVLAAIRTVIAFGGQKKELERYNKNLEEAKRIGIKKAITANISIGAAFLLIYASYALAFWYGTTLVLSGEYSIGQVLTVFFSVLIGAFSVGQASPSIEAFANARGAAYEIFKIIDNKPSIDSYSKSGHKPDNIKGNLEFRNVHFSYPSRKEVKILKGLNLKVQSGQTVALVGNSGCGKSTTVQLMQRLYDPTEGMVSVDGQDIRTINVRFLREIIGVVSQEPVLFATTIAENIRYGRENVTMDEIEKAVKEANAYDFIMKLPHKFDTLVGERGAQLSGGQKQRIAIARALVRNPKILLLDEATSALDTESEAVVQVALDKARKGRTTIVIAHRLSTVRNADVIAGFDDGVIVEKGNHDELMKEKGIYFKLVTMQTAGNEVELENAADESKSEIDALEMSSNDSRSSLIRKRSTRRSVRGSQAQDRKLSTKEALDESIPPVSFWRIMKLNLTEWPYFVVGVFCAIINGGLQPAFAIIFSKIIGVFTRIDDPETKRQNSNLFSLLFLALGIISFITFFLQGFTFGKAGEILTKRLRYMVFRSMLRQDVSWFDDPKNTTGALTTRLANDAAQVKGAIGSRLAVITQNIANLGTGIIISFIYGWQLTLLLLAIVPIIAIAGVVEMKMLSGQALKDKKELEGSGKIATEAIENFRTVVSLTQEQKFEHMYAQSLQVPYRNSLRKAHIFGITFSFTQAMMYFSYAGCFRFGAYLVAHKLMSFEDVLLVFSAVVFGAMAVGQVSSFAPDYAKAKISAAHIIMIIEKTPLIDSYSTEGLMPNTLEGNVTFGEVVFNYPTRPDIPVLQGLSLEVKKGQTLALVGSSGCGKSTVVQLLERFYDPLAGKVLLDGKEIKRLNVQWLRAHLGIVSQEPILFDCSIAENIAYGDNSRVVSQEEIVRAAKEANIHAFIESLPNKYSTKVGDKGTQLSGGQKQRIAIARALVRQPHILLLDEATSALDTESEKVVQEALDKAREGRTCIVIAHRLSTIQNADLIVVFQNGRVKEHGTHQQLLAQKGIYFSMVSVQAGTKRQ

[4] = target: T2, ABCB1; experiment: cell-based; design: crude membranes of High-five cells expressing ABCB1; conditions: read-out: vanadate-sensitive ATPase stimulation in crude membranes (weak: maximal 1.78-fol)
[5] = target: T2, ABCB1
[6] = tested on: T3, HEK/ABCB1; experiment: cells; design: species or system HEK293 and transfected HEK293; MTT cytotoxicity, absorbance 570 nm, 72 h; conditions: Homo sapiens, HEK293, 72 h; drug alone; read-out: IC50 HEK/ABCB1 (paclitaxel)
T3 construct: HEK293 transfected with ABCB1
Description: as §1

Structure (SMILES): O=C1c2c(O)ccc(O)c2C(=O)c2c(NCCNCCO)ccc(NCCNCCO)c21 [Mitoxantrone]
- IC50 ([1]; read-out: IC50 HEK293 (mitoxantrone)): 40 nM
- IC50 [2]: 920 nM

Structure (SMILES): CC(C)(O)[C@H]1CC[C@@](C)([C@H]2CC[C@]3(C)[C@@H]2[C@H](O)C[C@@H]2[C@@]4(C)CC[C@H](N)C(C)(C)[C@@H]4CC[C@]23C)O1 [ORA, (20S, 24R/S)-epoxy-12β, 25-dihydroxy-dommarane-3β-amine]
- EC50 [3]: 2080 nM

Structure (SMILES): CC(C)(O)[C@@H]1CC[C@@](C)([C@H]2CC[C@]3(C)[C@@H]2[C@H](O)C[C@@H]2[C@@]4(C)CC[C@H](N)C(C)(C)[C@@H]4CC[C@]23C)O1 [OSA, (20S, 24R/S)-epoxy-12β, 25-dihydroxy-dommarane-3β-amine]
- maximal fold induction [4]: 1.78

Structure (SMILES): CC(=O)O[C@H]1C(=O)[C@@]2(C)[C@H]([C@H](OC(=O)c3ccccc3)[C@]3(O)C[C@H](OC(=O)[C@H](O)[C@@H](NC(=O)c4ccccc4)c4ccccc4)C(C)=C1C3(C)C)[C@]1(OC(C)=O)CO[C@@H]1C[C@@H]2O [paclitaxel]
- radiolabelled efflux and accumulation in ABCB1-overexpressing versus parental ce [5]: decreased much faster over time than those in the parental cells, suggesting an active process of drug efflux mediated by ABCB1
- IC50 ([1]; read-out: IC50 HEK293 (paclitaxel)): 180 nM
- IC50 [6]: 8200 nM
